The source of these data is patent US7425551B2, “Malonamide derivatives” (Hoffmann-La Roche Inc., priority 2006, dated 2008).

The target in the assay is T1, γ-secretase (Homo sapiens, UniProt P49768).
T1 construct: uses a HEK293 membrane fraction as a source of γ-secretase; endogenous in cells; host or cells: HEK293 (microsomal membrane fraction, solubilised in 0.25% CHAPSO)
Kind of assay: in vitro assay of γ-secretase activity (HEK293 membrane fraction, recombinant APP substrate, Abeta ELISA). The format is biochemical. Particulars: γ-secretase inhibition; HEK293 membrane fraction solubilized in 0.25% CHAPSO, recombinant human APP C-terminal 100 amino acids substrate, Abeta detected by ELISA. From the text: Description of 1γ-Secretase Assay The activity of test compounds can be evaluated in assays which measure the proteolytic cleavage of suitable substrates by γ-secretase activity. These can be cellular assays where e.g., a substrate of the γ-secretase is fused in its cytoplasmic domain to a transcription factor. Cells are transfected with this fusion gene and a reporter gene, e.g., firefly luciferase, which expression is enhanced by the transcription factor. Cleavage of the fused substrate by γ-secretase will lead to expression of the reporter gene which can be monitored in appropriate assays. The γ-secretase activity can also be determined in cell-free in vitro assays where e.g., a cell lysate containing the γ-secretase complex is incubated with a suitable APP-derived substrate which is cleaved to the Abeta peptides. The amount of produced peptides can be determined with specific ELISA assays. Cell lines of neuronal origin secrete Abeta peptides which can be measured with the specific ELISA assay. Treatment with compounds which inhibit γ-secretase leads to a reduction of secreted Abeta thus providing a measure of inhibition. The in vitro assay of γ-secretase activity uses a HEK293 membrane fraction as a source of γ-secretase and a recombinant APP substrate. Latter consist of the C-terminal 100 amino acids of human APP fused to a 6× Histidin tail for purification which is expressed in E. coli in a regulatable expression vector, e.g. pEt15. This recombinant protein corresponds to the truncated APP fragment which results after […] of the extracellular domain and which constitutes the γ-secretase substrate. The assay principle is described in Li Y M et al, PNAS 97(11), 6138-6143 (2000). Hek293 cells are mechanically disrupted and the microsomal fraction is isolated by differential centrifugation. The membranes are solubilized in detergent (0.25% CHAPSO) and incubated with the APP substrate. The Abeta peptides which are produced by γ-secretase cleavage of the substrate are detected by specific ELISA assays as described (Brockhaus M et al, Neuroreport 9(7), 1481-1486 (1998).
(ELISA stands for enzyme-linked immunosorbent assay.)

One may read the IC50 as the concentration needed to halve the response being measured. Consider `C[C@@](F)(C(=O)NCCC(F)(F)F)C(=O)N[C@@H]1C(=O)N(CCOCc2ccccc2)c2ccccc2-c2ccccc21` [Example 51, (R)—N—[(S)-5-(2-Benzyloxy-ethyl)-6-oxo-6,7-dihydro-5H-dibenzo[b,d]azepin-7-yl]-2-fluoro-2-methyl-N′-(3,3,3-trifluoro-propyl)-malonamide], for which the IC50 came out at 7 nM.

For `O=C(CC(=O)N[C@@H]1C(=O)N(CCO)c2ccccc2-c2ccccc21)NCCC(F)(F)F` [Example 30, N—[(S)-5-(2-Hydroxy-ethyl)-6-oxo-6,7-dihydro-5H-dibenzo[b,d]azepin-7-yl]-N′-(3,3,3-trifluoro-propyl)-malonamide], the IC50 came out at 75 nM.

Take `CC(O)(C(=O)NCCC(F)(F)C(F)(F)F)C(=O)N[C@@H]1C(=O)N(CCO)c2ccccc2-c2ccccc21` (single isomer, unassigned; epimer b) [Example 62, (S or R)-2-Hydroxy-N—[(S)-5-(2-hydroxy-ethyl)-6-oxo-6,7-dihydro-5H-dibenzo[b,d]azepin-7-yl]-2-methyl-N′-(3,3,4,4,4-pentafluoro-butyl)-malonamide, epimer B]: the IC50 amounted to 1 nM.

For the molecule `C[C@](F)(C(=O)NCCC(F)(F)C(F)(F)F)C(=O)N[C@@H]1C(=O)N(CCOCc2ccccc2)c2ccccc2-c2ccccc21` [Example 44, (S)—N—[(S)-5-(2-Benzyloxy-ethyl)-6-oxo-6,7-dihydro-5H-dibenzo[b,d]azepin-7-yl]-2-fluoro-2-methyl-N′-(3,3,4,4,4-pentafluoro-butyl)-malonamide], the half-maximal inhibitory concentration (IC50) stood at 9 nM.

With `O=C(CC(=O)N[C@@H]1C(=O)N(CCO)c2ccccc2-c2ccccc21)NCCC(F)(F)C(F)(F)F` [Example 31, N—[(S)-5-(2-Hydroxy-ethyl)-6-oxo-6,7-dihydro-5H-dibenzo[b,d]azepin-7-yl]-N′-(3,3,4,4,4-pentafluoro-butyl)-malonamide], the IC50 is 200 nM.

On to `CC(O)(C(=O)NCC(F)(F)C(F)(F)F)C(=O)N[C@@H]1C(=O)N(CCO)c2ccccc2-c2ccccc21` (single isomer, unassigned; epimer a) [Example 20], for which the IC50 came to 3 nM.

On to `CC(O)(C(=O)NCCC(F)(F)F)C(=O)N[C@@H]1C(=O)N(CCO)c2ccccc2-c2ccccc21` (single isomer, unassigned; epimer b) [Example 66, (S or R)-2-Hydroxy-N—[(S)-5-(2-hydroxy-ethyl)-6-oxo-6,7-dihydro-5H-dibenzo[b,d]azepin-7-yl]-2-methyl-N′-(3,3,3-trifluoro-propyl)-malonamide, epimer B], for which the IC50 is 1 nM.

Regarding `CC(C)(C(=O)NCC(F)(F)C(F)(F)F)C(=O)N[C@@H]1C(=O)N(CCO)c2ccccc2-c2ccccc21` [Example 6, N—[(S)-5-(2-Hydroxy-ethyl)-6-oxo-6,7-dihydro-5H-dibenzo[b,d]azepin-7-yl]-2,2-dimethyl-N′-(2,2,3,3,3-pentafluoro-propyl)-malonamide], the IC50 was determined as 2 nM.

In the case of `C[C@](O)(C(=O)NCC(F)(F)F)C(=O)N[C@@H]1C(=O)N(CCO)c2ccccc2-c2ccccc21` [Example 60, (S)-2-Hydroxy-N—[(S)-5-(2-hydroxy-ethyl)-6-oxo-6,7-dihydro-5H-dibenzo[b,d]azepin-7-yl]-2-methyl-N′-(2,2,2-trifluoro-ethyl)-malonamide], the half-maximal inhibitory concentration (IC50) was 4 nM.

For the molecule `C[C@@](O)(C(=O)NCC(F)(F)F)C(=O)N[C@@H]1C(=O)N(CCO)c2ccccc2-c2ccccc21` [Example 59, (R)-2-Hydroxy-N—[(S)-5-(2-hydroxy-ethyl)-6-oxo-6,7-dihydro-5H-dibenzo[b,d]azepin-7-yl]-2-methyl-N′-(2,2,2-trifluoro-ethyl)-malonamide], the IC50 turned out to be 190 nM.

Consider `C[C@@](F)(C(=O)NCCC(F)(F)C(F)(F)F)C(=O)N[C@@H]1C(=O)N(CCOCc2ccccc2)c2ccccc2-c2ccccc21` [Example 40, (R)—N—[(S)-5-(2-Benzyloxy-ethyl)-6-oxo-6,7-dihydro-5H-dibenzo[b,d]azepin-7-yl]-2-fluoro-2-methyl-N′-(3,3,4,4,4-pentafluoro-butyl)-malonamide], for which the IC50 was 5 nM.
